Laboratory results from ChEMBL document CHEMBL1697781, “Assessment of the health effects of chemicals in humans: II. Construction of an adverse effects database for QSAR modeling” (Curr Drug Discov Technol, 2004).

Columns and labels:
Details in all cases: human; call rule not given here
Hepatotoxicity [1] = assay: FDA HLAED, liver enzyme composite activity
Hepatotoxicity [2] = assay: FDA HLAED, lactate dehydrogenase (LDH) increase
Hepatotoxicity [3] = assay: FDA HLAED, alkaline phosphatase increase
Hepatotoxicity [4] = assay: FDA HLAED, serum glutamic pyruvic transaminase (SGPT) increase
Hepatotoxicity [5] = assay: FDA HLAED, serum glutamic oxaloacetic transaminase (SGOT) increase
Hepatotoxicity [6] = assay: FDA HLAED, gamma-glutamyl transferase (GGT) increase
Throughout, for GGT Increase - Index Value: reference of the scale not given here.
Throughout, for LDH Increase - Index Value: reference of the scale not given here.

SMILES	Composite Activity - Active (Hepatotoxicity [1])	Composite Activity - Marginal (Hepatotoxicity [1])	Composite Activity - Score (Hepatotoxicity [1])	LDH Increase - Activity Score (Hepatotoxicity [2])	LDH Increase - Index Value (Hepatotoxicity [2])	LDH Increase - Number of Reports (Hepatotoxicity [2])	Alkaline Phosphatase Increase - Activity Score (Hepatotoxicity [3])	Alkaline Phosphatase Increase - Index Value (Hepatotoxicity [3])	Alkaline Phosphatase Increase - Number of Reports (Hepatotoxicity [3])	SGPT Increase - Activity Score (Hepatotoxicity [4])	SGPT Increase - Index Value (Hepatotoxicity [4])	SGPT Increase - Number of Reports (Hepatotoxicity [4])	SGOT Increase - Activity Score (Hepatotoxicity [5])	SGOT Increase - Index Value (Hepatotoxicity [5])	SGOT Increase - Number of Reports (Hepatotoxicity [5])	GGT Increase - Activity Score (Hepatotoxicity [6])	GGT Increase - Index Value (Hepatotoxicity [6])	GGT Increase - Number of Reports (Hepatotoxicity [6])
CCCCCCC(C)(C)c1cc(O)c2c(c1)OC(C)(C)C1CCC(=O)CC21 (centres undefined) [NABILONE]	0	0	Inactive	Inactive	0	< 4	Inactive	0	< 4	Inactive	0	< 4	Inactive	0	< 4	Inactive	0	< 4
CC(C)(C)NCC(O)c1ccc(O)c(CO)n1 (centres undefined) [PIRBUTEROL]	0	0	Inactive	Inactive	0	< 4	Inactive	0	< 4	Inactive	0	< 4	Inactive	0.3	< 4	Inactive	0	< 4
CC(O)(CS(=O)(=O)c1ccc(F)cc1)C(=O)Nc1ccc(C#N)c(C(F)(F)F)c1 (centres undefined) [BICALUTAMIDE]	3	0	Active	Inactive	5.1	< 4	Active	8.5	>= 4	Active	11.9	>= 4	Active	13.6	>= 4	Inactive	1.7	< 4
CC[C@H](C)C(=O)O[C@H]1C[C@H](O)C=C2C=C[C@H](C)[C@H](CC[C@@H](O)C[C@@H](O)CC(=O)O)[C@H]21 [PRAVASTATIN]	4	1	Active	Marginally Active	3.1	>= 4	Active	4.5	>= 4	Active	6.3	>= 4	Active	6.2	>= 4	Active	5.3	>= 4
CCOC(=O)[C@H](CCc1ccccc1)N[C@@H](C)C(=O)N1Cc2cc(OC)c(OC)cc2C[C@H]1C(=O)O [MOEXIPRIL]	0	0	Inactive	Inactive	0	< 4	Inactive	0	< 4	Inactive	1.3	< 4	Inactive	1.3	< 4	Inactive	0	< 4
C[C@@]12CCCCC[C@@H](Cc3ccc(O)cc31)[C@@H]2N [DEZOCINE]	0	0	Inactive	Inactive	0	< 4	Inactive	0	< 4	Inactive	0	< 4	Inactive	0	< 4	Inactive	0	< 4
CC(C)C[C@H]1C(=O)N2CCC[C@H]2[C@]2(O)O[C@](NC(=O)[C@@H]3C=C4c5cccc6[nH]c(Br)c(c56)C[C@H]4N(C)C3)(C(C)C)C(=O)N12 [BROMOCRIPTINE]	0	0	Inactive	Inactive	0	< 4	Inactive	0	< 4	Inactive	0	< 4	Inactive	0	< 4	Inactive	0	< 4
CCC(=O)[C@@]1(C)[C@H](C)C[C@H]2[C@@H]3CCC4=CC(=O)C=C[C@]4(C)[C@H]3[C@@H](O)C[C@@]21C [RIMEXOLONE]	0	0	Inactive	Inactive	0	< 4	Inactive	0	< 4	Inactive	0	< 4	Inactive	0	< 4	Inactive	0	< 4
